Reference: ChEMBL document CHEMBL1138532, “Global challenge of multidrug-resistant Acinetobacter baumannii” (Antimicrob Agents Chemother, 2007)
In brackets after ≈: the same amount, converted by molar mass. Each block holds one compound with its values, some of them ahead of it.

Key:
Acinetobacter baumannii [1] = assay: Antimicrobial activity against drug-resistant Acinetobacter baumannii producing PER1 beta-lactamase; format: functional
Acinetobacter baumannii [2] = assay: Antimicrobial activity against Acinetobacter baumannii isolate producing IMP-4 beta-lactamase by agar dilution method; format: functional
Acinetobacter baumannii [3] = assay: Antimicrobial activity against Acinetobacter baumannii isolate producing metallo beta-lactamase by agar dilution method; format: functional
Acinetobacter baumannii [4] = assay: Antimicrobial activity against Acinetobacter baumannii isolate producing OXA-23 beta-lactamase by agar dilution method; format: functional
Acinetobacter baumannii [5] = assay: Antimicrobial activity against carbapenem-resistant Acinetobacter baumannii expressing ISAba1; format: functional
Acinetobacter baumannii [6] = assay: Antimicrobial activity against carbapenem-resistant Acinetobacter baumannii expressing ISAba3; format: functional
Homo sapiens = species on record: Homo sapiens; assay: […] in carbapenem-resistant Acinetobacter baumannii infected human assessed as incidence of acute renal failure; format: toxicity, organism-based; conditions: in vivo
Acinetobacter baumannii [7] = assay: Antimicrobial activity against Acinetobacter baumannii isolates by E-test; format: functional, organism-based

Compound: CO/N=C(\C(=O)N[C@@H]1C(=O)N2C(C(=O)[O-])=C(C[N+]3(C)CCCC3)CS[C@H]12)c1csc(N)n1 [CEFEPIME]
MIC (Acinetobacter baumannii [1]): 32 µg/mL (≈ 66.6 µM)

Compound: CC(C)(O/N=C(\C(=O)N[C@@H]1C(=O)N2C(C(=O)[O-])=C(C[n+]3ccccc3)CS[C@H]12)c1csc(N)n1)C(=O)O [CEFTAZIDIME]
MIC (Acinetobacter baumannii [1]): 256 µg/mL (≈ 468 µM)

MIC (Acinetobacter baumannii [2]): ≤ 4 µg/mL
MIC50 (Acinetobacter baumannii [2]): 0.5 µg/mL (≈ 1.19 µM)
MIC90 (Acinetobacter baumannii [2]): 16 µg/mL (≈ 38 µM)
MIC (Acinetobacter baumannii [3]): ≤ 4 µg/mL
MIC50 (Acinetobacter baumannii [3]): 0.5 µg/mL (≈ 1.19 µM)
MIC90 (Acinetobacter baumannii [3]): 16 µg/mL (≈ 38 µM)
MIC (Acinetobacter baumannii [4]): ≤ 4 µg/mL
MIC50 (Acinetobacter baumannii [4]): 0.5 µg/mL (≈ 1.19 µM)
MIC90 (Acinetobacter baumannii [4]): 16 µg/mL (≈ 38 µM)
Compound: C[C@@H](O)[C@H]1C(=O)N2C(C(=O)O)=C(S[C@@H]3CN[C@H](CNS(N)(=O)=O)C3)[C@H](C)[C@H]12 [DORIPENEM]

Compound: C[C@@H](O)[C@H]1C(=O)N2C(C(=O)O)=C(SCCNC=N)C[C@H]12 [IMIPENEM ANHYDROUS]
MIC (Acinetobacter baumannii [5]): ≥ 32 µg/mL
MIC (Acinetobacter baumannii [6]): ≥ 32 µg/mL

Compound: C[C@@H](O)[C@H]1C(=O)N2C(C(=O)O)=C(S[C@@H]3CN[C@H](C(=O)N(C)C)C3)[C@H](C)[C@H]12 [MEROPENEM]
MIC (Acinetobacter baumannii [5]): ≥ 32 µg/mL
MIC (Acinetobacter baumannii [6]): ≥ 32 µg/mL

Compound: COLISTIN [listing 1 of 2 here]
Activity (Homo sapiens): 14%

MIC (Acinetobacter baumannii [7]): 1 µg/mL
Compound: COLISTIN [listing 2 of 2 here]
